# ChEMBL document CHEMBL1122862, “Synthesis and antibacterial activity of 2,2'-dithiobis(benzamide) derivatives against Mycobacterium species” (1985)
# Tests used:
# Assay type in all cases: functional
# [1] = tested on: Mycobacterium kansasii; test: Antibacterial activity against Mycobacterium kansasii
# [2] = tested on: Mycobacterium intracellulare; test: Antibacterial activity against Mycobacterium intracellular.
# [3] = tested on: Mycobacterium tuberculosis; test: Antibacterial activity against Mycobacterium tuberculosis H37Rv.
SMILES,MIC [1] [µg/mL],MIC [2] [µg/mL],MIC [3] [µg/mL]
CCCCc1ccc(NC(=O)c2ccccc2SSc2ccccc2C(=O)Nc2ccc(CCCC)cc2)cc1,12.5,12.5,0.78
O=c1c2ccccc2sn1CO,12.5,12.5,12.5
CCNC(=O)OCCNC(=O)c1ccccc1SSc1ccccc1C(=O)NCCOC(=O)NCC,25,25,25
CCCCCCCCCCCCNC(=O)c1ccccc1SSc1ccccc1C(=O)NCCCCCCCCCCCC,25,50,3.13
CCCCCCCCCCCCCCCC(=O)OCCNC(=O)c1ccccc1SSc1ccccc1C(=O)NCCOC(=O)CCCCCCCCCCCCCCC,100,100,100
CCCCCCCC(=O)OCCCNC(=O)c1ccccc1SSc1ccccc1C(=O)NCCCOC(=O)CCCCCCC,0.78,12.5,0.39
CC(O)CNC(=O)c1ccccc1SSc1ccccc1C(=O)NCC(C)O (centres undefined),25,25,1.56
CCCCCCCCCCCCCCCCCCNC(=O)c1ccccc1SSc1ccccc1C(=O)NCCCCCCCCCCCCCCCCCC,> 100,> 100,100
Cl.Cl.O=C(c1ccccc1SSc1ccccc1C(=O)N1CCN(C(c2ccccc2)c2ccccc2)CC1)N1CCN(C(c2ccccc2)c2ccccc2)CC1,> 100,> 100,> 100
CCCCCC(=O)OCCCNC(=O)c1ccccc1SSc1ccccc1C(=O)NCCCOC(=O)CCCCC,0.39,12.5,3.13
CCOCCCNC(=O)c1ccccc1SSc1ccccc1C(=O)NCCCOCC,12.5,12.5,1.56
O=C1c2ccccc2S(=O)(=O)N1CO,> 100,100,> 100
O=C(Nc1cccc(Cl)c1)c1ccccc1SSc1ccccc1C(=O)Nc1cccc(Cl)c1,12.5,25,3.13
O=C(Nc1ccccc1Cl)c1ccccc1SSc1ccccc1C(=O)Nc1ccccc1Cl,100,> 100,25
CCCCCCCCCC(=O)OCCCNC(=O)c1ccccc1SSc1ccccc1C(=O)NCCCOC(=O)CCCCCCCCC,0.39,12.5,0.39
CCOc1ccc2nc(NC(=O)c3ccccc3SSc3ccccc3C(=O)Nc3nc4ccc(OCC)cc4s3)sc2c1,> 100,> 100,> 100
CN1CCCN(C(=O)c2ccccc2SSc2ccccc2C(=O)N2CCCN(C)CC2)CC1,> 100,> 100,> 100
CCCCCCCCCCCCCCCC(=O)OC(C)CNC(=O)c1ccccc1SSc1ccccc1C(=O)NCC(C)OC(=O)CCCCCCCCCCCCCCC (centres undefined),> 100,> 100,25
